Data from patent US20080269214A1, “Pyrrole Derivatives as Dna Gyrase and Topoisomerase Inhibitors” (ASTRAZENECA AB, priority 2005, published 2008).
Values after ≈ are worked out from the molar mass of the structure shown.

Experiments:
Assay in all cases: Bacterial susceptibility testing in liquid media (MIC)
[1] = system: SPN548; assay type: cell-based, Streptococcus pneumoniae; settings: strain SPN548; no unit printed in table (b320 text uses μg/ml); growth reduced by 80% or more, 24 hrs
Description: (§1) Compounds were tested for antimicrobial activity by susceptibility testing in liquid media. Compounds were dissolved in dimethylsulfoxide and tested in 10 doubling dilutions in the susceptibility assays. The organisms used in the assay were grown overnight on suitable agar media and then suspended in a liquid medium appropriate for the growth of the organism. The suspension was a 0.5 McFarland and a further 1 in 10 dilution was made into the same liquid medium to prepare the final organism suspension in 100 µL. Plates were incubated under appropriate conditions at 37 degrees C. for 24 hrs prior to reading. The Minimum Inhibitory Concentration was determined as the lowest drug concentration able to reduce growth by 80% or more.

[2] = system: HIN446; assay type: cell-based; settings: strain HIN446; no unit printed in table (b320 text uses μg/ml); growth reduced by 80% or more, 24 hrs
Description: as §1

[3] = system: SAU516; assay type: cell-based; settings: strain SAU516; no unit printed in table (b320 text uses μg/ml); growth reduced by 80% or more, 24 hrs
Description: as §1

[4] = system: Streptococcus pneumoniae; assay type: cell-based; settings: lowest concentration reducing growth by 80% or more, 37 degrees C., 24 hrs, read-out: MIC against Streptococcus pneumoniae
Description: as §1

SMILES	MIC SPN548 [1]	MIC HIN446 [2]	MIC SAU516 [3]	MIC [4]
Cc1[nH]c(C(=O)Nc2ccc(-c3cncc(C(=O)O)c3)cc2)c(Cl)c1Cl [Example 23, 5-[4-[[(3,4-Dichloro-5-methyl-1H-pyrrol-2-yl)carbonyl]amino]phenyl]-3-pyridinecarboxylic acid]	0.13	2	4	–
CNc1ncc(-c2ccc(NC(=O)c3[nH]c(C)c(Cl)c3Cl)cc2)cc1C(=O)O [Example 25, 5-(4-{[(3,4-Dichloro-5-methyl-1H-pyrrol-2-yl)carbonyl]amino}phenyl)-2-(methylamino)nicotinic acid]	1	4	2	–
Cc1[nH]c(C(=O)Nc2ccc(-c3cnc(Cl)c(C(=O)O)c3)cc2)c(Cl)c1Cl [Example 26, 2-Chloro-5-(4-{[(3,4-dichloro-5-methyl-1H-pyrrol-2-yl)carbonyl]amino}phenyl)nicotinic acid]	1	8	32	–
Cc1[nH]c(C(=O)Nc2ccc(-c3cc(C(=O)O)ccn3)cc2)c(Cl)c1Cl [Example 27, 2-(4-{[(3,4-Dichloro-5-methyl-1H-pyrrol-2-yl)carbonyl]amino}phenyl)isonicotinic acid]	0.13	2	2	–
COc1ncc(-c2ccc(NC(=O)c3[nH]c(C)c(Cl)c3Cl)cc2)cc1C(=O)O [Example 30, 5-(4-{[(3,4-Dichloro-5-methyl-1H-pyrrol-2-yl)carbonyl]amino}phenyl)-2-methoxynicotinic acid]	–	–	–	1 µg/mL (≈ 2.38 µM)
Cc1[nH]c(C(=O)Nc2ccc(-c3ccc(C(=O)O)o3)cc2)c(Cl)c1Cl [Example 36, 5-(4-{[(3,4-Dichloro-5-methyl-1H-pyrrol-2-yl)carbonyl]amino}phenyl)-2-furoic acid]	0.25	1	2	–
